Experimental findings from US20250042914A1, “PIKFYVE KINASE INHIBITOR” (HANMI PHARM. CO., LTD., priority 2021, published 2025) are described below.

The term pIC50 denotes −log10 of the IC50, conventionally taken in molar units.

Molecules are shown by their SMILES. pIC50: −log10 of the molar value. Structures can show the parent of a compound that is named as a salt.

Chain of human-derived PIKfyve kinase (Q9Y2I7 whole entry): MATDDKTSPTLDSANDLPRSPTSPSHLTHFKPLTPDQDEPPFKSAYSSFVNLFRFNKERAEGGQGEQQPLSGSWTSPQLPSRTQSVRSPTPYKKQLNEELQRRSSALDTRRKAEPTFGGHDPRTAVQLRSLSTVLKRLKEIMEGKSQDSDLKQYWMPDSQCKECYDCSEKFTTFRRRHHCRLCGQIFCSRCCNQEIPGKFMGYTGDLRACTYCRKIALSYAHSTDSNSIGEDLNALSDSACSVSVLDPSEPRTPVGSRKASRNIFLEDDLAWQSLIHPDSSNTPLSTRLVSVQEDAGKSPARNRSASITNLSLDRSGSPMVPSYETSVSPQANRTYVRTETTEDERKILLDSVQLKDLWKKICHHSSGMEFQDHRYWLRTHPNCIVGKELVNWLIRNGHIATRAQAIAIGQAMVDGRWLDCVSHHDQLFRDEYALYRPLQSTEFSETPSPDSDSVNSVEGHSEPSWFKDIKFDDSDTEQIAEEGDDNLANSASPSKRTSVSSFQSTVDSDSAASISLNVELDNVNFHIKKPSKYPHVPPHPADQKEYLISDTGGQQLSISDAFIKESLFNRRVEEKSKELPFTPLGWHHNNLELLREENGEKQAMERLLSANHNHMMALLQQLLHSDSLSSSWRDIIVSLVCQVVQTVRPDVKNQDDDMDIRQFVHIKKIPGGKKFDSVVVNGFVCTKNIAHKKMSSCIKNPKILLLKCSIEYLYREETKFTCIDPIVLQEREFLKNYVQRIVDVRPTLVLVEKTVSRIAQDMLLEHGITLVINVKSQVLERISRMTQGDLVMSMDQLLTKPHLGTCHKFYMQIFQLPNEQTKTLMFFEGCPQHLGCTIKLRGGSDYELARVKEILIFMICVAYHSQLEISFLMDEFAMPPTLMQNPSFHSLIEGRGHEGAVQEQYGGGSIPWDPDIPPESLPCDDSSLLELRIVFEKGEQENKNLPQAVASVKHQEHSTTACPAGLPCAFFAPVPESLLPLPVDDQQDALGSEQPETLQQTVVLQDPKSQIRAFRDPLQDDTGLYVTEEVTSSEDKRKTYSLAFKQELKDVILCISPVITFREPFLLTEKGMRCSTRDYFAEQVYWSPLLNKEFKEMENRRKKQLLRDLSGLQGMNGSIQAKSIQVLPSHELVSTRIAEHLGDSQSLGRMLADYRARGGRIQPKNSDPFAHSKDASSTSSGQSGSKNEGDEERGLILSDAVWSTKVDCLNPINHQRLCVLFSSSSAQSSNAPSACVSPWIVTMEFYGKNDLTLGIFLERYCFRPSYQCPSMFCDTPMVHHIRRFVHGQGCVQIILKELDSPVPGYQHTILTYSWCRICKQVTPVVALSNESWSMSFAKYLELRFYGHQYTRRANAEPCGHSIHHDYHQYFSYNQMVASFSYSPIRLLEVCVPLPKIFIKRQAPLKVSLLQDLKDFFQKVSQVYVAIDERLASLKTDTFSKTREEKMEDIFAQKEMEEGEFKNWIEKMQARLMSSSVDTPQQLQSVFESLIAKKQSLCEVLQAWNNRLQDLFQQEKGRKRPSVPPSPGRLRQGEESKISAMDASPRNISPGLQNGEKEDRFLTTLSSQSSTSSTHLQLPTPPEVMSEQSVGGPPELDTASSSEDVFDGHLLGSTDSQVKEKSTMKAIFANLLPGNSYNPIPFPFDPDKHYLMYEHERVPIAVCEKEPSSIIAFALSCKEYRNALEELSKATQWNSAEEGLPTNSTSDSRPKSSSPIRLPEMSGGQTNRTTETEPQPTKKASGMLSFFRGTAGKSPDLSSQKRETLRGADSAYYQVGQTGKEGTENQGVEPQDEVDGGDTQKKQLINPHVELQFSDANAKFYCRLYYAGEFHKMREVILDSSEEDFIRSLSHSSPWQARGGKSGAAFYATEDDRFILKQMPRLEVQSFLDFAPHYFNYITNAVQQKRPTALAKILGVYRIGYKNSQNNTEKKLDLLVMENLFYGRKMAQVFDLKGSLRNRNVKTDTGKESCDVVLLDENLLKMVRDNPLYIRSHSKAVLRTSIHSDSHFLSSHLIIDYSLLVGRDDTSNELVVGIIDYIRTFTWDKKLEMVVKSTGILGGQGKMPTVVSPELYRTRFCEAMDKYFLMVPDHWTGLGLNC

The experiment has as its target human-derived PIKfyve kinase (Homo sapiens (Human), UniProt Q9Y2I7). The experiment is described as follows: PIKfyve enzyme inhibition assay (ADP-Glo). To be noted: PIKfyve enzyme inhibitory assay; PI(3)P 10 μm, ATP 2 μm, 60 minutes. The class given is biochemical. On the procedure:
For each of the compounds prepared in Examples 1 to 33, the PIKfyve enzyme inhibitory activity was measured by using a QS S Assis PIKFYVE (PIP5K3)_ADP-Glo™ Kit (Cat. #11-118) made by Carna Bioscience. 5 μL of each of human-derived PIKfyve kinase, PI(3)P, and ATP solution was added to a 384-well plate (such that final concentrations of each solution are 375 ng/ml, 10 μm, and 2 μm, respectively). The compound to be evaluated underwent serial dilution according to the set concentrations, and 5 μL of the diluted solution was added to each well and caused a reaction for 60 minutes. MgCl2 was mixed in ADP-Glo™ solution (Promega, Cat. #V9102) to a final concentration of 100 mM, and 20 μL of the mixed solution was added to each well and caused a reaction at room temperature for 40 minutes. 40 μL of kinase detection solution was added to each well and caused a reaction at room temperature for 40 minutes. Then, the luminescence signals were detected by using a Synergy™ NEO microplate analyzer. Well to which no enzyme was added were used as a negative control, whereas wells to which no drug was added were used as a positive control, so as to calculate the enzyme inhibitory ability (%) of drugs. The 50% inhibitor concentration (IC50) values were calculated by using a GraphPad Prism software.
In Table 1, when the case where the IC50 value was 50 nM or less was indicated as A, the case where the IC50 value was greater than 50 nM but equal to or less than 100 nM was indicated as B, and the case where the IC50 value was greater than 100 nM was indicated as C.
(ADP-Glo turns the ADP formed in a reaction into a luminescent signal.)
For the compound `O=C(Nc1cccc(-c2nc(N3CCOCC3)c3sc(-c4ccncc4)cc3n2)c1)c1ccncc1` [Example 1, N-(3-(4-morpholino-6-(pyridin-4-yl)thieno[3,2-d]pyrimidin-2-yl)phenyl)isonicotinamide], the pIC50 was no less than 7.30. The value for `O=C(Nc1cccc(-c2nc(N3CCOCC3)c3sc(-c4cccnc4)cc3n2)c1)c1ccncc1` [Example 2, N-(3-(4-morpholino-6-(pyridin-3-yl)thieno[3,2-d]pyrimidin-2-yl)phenyl)isonicotinamide] was no less than 7.30. `O=C(Nc1cccc(-c2nc(N3CCOCC3)c3sc(-c4cnco4)cc3n2)c1)c1ccncc1` [Example 3, N-(3-(4-morpholino-6-(oxazol-5-yl)thieno[3,2-d]pyrimidin-2-yl)phenyl)isonicotinamide]: the pIC50 is no less than 7.30. The value for `O=C(Nc1cccc(-c2nc(N3CCOCC3)c3sc(-c4ccncc4)cc3n2)c1)c1cccnc1` [Example 4, N-(3-(4-morpholino-6-(pyridin-4-yl)thieno[3,2-d]pyrimidin-2-yl)phenyl)nicotinamide] was no less than 7.30. The value for `O=C(Nc1cccc(-c2nc(N3CCOCC3)c3sc(-c4cccnc4)cc3n2)c1)c1cccnc1` [Example 5, N-(3-(4-morpholino-6-(pyridin-3-yl)thieno[3,2-d]pyrimidin-2-yl)phenyl)nicotinamide] was no less than 7.30; that for `Nc1ccc(-c2cc3nc(-c4cccc(NC(=O)c5cccnc5)c4)nc(N4CCOCC4)c3s2)cc1` [Example 6, N-(3-(6-(4-aminophenyl)-4-morpholinothieno[3,2-d]pyrimidin-2-yl)phenyl)nicotinamide hydrochloride] was no less than 7.30; that for `O=C(Nc1cccc(-c2nc(N3CCOCC3)c3sc(-c4cnco4)cc3n2)c1)c1cccnc1` [Example 7, N-(3-(4-morpholino-6-(oxazol-5-yl)thieno[3,2-d]pyrimidin-2-yl)phenyl)nicotinamide] was no less than 7.30. The value for `O=C(Nc1cccc(-c2nc(N3CCOCC3)c3sc(-c4ccnc5[nH]ccc45)cc3n2)c1)c1cccnc1` [Example 9, N-(3-(4-morpholino-6-(1H-pyrrolo[2,3-b]pyridin-4-yl)thieno[3,2-d]pyrimidin-2-yl)phenyl)nicotinamide] was no less than 7.30; that for `O=C(Nc1cccc(-c2nc(N3CCOCC3)c3sc(-c4ccnc5[nH]ncc45)cc3n2)c1)c1cccnc1` [Example 10, N-(3-(4-morpholino-6-(1H-pyrazolo[3,4-b]pyridin-4-yl)thieno[3,2-d]pyrimidin-2-yl)phenyl)nicotinamide] was 7.00 to 7.30; that for `O=C(Nc1cccc(-c2nc(N3CCOCC3)c3sc(-c4cncc5[nH]ccc45)cc3n2)c1)c1cccnc1` [Example 11, N-(3-(4-morpholino-6-(1H-pyrrolo[2,3-c]pyridin-4-yl)thieno[3,2-d]pyrimidin-2-yl)phenyl)nicotinamide] was less than 7.00. `O=C(Nc1cccc(-c2nc(N3CCOCC3)c3sc(-c4cccnc4)cc3n2)c1)c1cocn1` [Example 12, N-(3-(4-morpholino-6-(pyridin-3-yl)thieno[3,2-d]pyrimidin-2-yl)phenyl) oxazole-4-carboxamide]: the pIC50 is no less than 7.30.

`O=C(Nc1cccc(-c2nc(N3CCOCC3)c3sc(-c4cccnc4)cc3n2)c1)c1cnco1` [Example 13, N-(3-(4-morpholino-6-(pyridin-3-yl)thieno[3,2-d]pyrimidin-2-yl)phenyl) oxazole-5-carboxamide]: the pIC50 was no less than 7.30.

Turning to `O=C(Nc1cccc(-c2nc(N3CCOCC3)c3sc(-c4cccnc4)cc3n2)c1)c1ncco1` [Example 14, N-(3-(4-morpholino-6-(pyridin-3-yl)thieno[3,2-d]pyrimidin-2-yl)phenyl) oxazole-2-carboxamide], the pIC50 is no less than 7.30.

On to `Cc1ncc(C(=O)Nc2cccc(-c3nc(N4CCOCC4)c4sc(-c5cccnc5)cc4n3)c2)o1` [Example 15, 2-methyl-N-(3-(4-morpholino-6-(pyridin-3-yl)thieno[3,2-d]pyrimidin-2-yl)phenyl) oxazole-5-carboxamide], for which the negative-log IC50 (pIC50) was 7.00 to 7.30. The value for `Cc1ncoc1C(=O)Nc1cccc(-c2nc(N3CCOCC3)c3sc(-c4cccnc4)cc3n2)c1` [Example 16, 4-methyl-N-(3-(4-morpholino-6-(pyridin-3-yl)thieno[3,2-d]pyrimidin-2-yl)phenyl) oxazole-5-carboxamide] was no less than 7.30; that for `Cc1nc(C)c(C(=O)Nc2cccc(-c3nc(N4CCOCC4)c4sc(-c5cccnc5)cc4n3)c2)o1` [Example 17, 2,4-dimethyl-N-(3-(4-morpholino-6-(pyridin-3-yl)thieno[3,2-d]pyrimidin-2-yl)phenyl) oxazole-5-carboxamide] was no less than 7.30; that for `O=C(Nc1cccc(-c2nc(N3CCOCC3)c3sc(-c4cccnc4)cc3n2)c1)c1cscn1` [Example 18, N-(3-(4-morpholino-6-(pyridin-3-yl)thieno[3,2-d]pyrimidin-2-yl)phenyl) thiazole-4-carboxamide] was less than 7.00.

Regarding `O=C(Nc1cccc(-c2nc(N3CCOCC3)c3sc(-c4cccnc4)cc3n2)c1)c1cncs1` [Example 19, N-(3-(4-morpholino-6-(pyridin-3-yl)thieno[3,2-d]pyrimidin-2-yl)phenyl) thiazole-5-carboxamide], the pIC50 is no less than 7.30.

Turning to `O=C(Nc1cccc(-c2nc(N3CCOCC3)c3sc(-c4cccnc4)cc3n2)c1)c1nccs1` [Example 20, N-(3-(4-morpholino-6-(pyridin-3-yl)thieno[3,2-d]pyrimidin-2-yl)phenyl) thiazole-2-carboxamide], the pIC50 is less than 7.00. The value for `Cc1ncc(C(=O)Nc2cccc(-c3nc(N4CCOCC4)c4sc(-c5cccnc5)cc4n3)c2)s1` [Example 21, 2-methyl-N-(3-(4-morpholino-6-(pyridin-3-yl)thieno[3,2-d]pyrimidin-2-yl)phenyl) thiazole-5-carboxamide] was no less than 7.30; that for `Cc1ncsc1C(=O)Nc1cccc(-c2nc(N3CCOCC3)c3sc(-c4cccnc4)cc3n2)c1` [Example 22, 4-methyl-N-(3-(4-morpholino-6-(pyridin-3-yl)thieno[3,2-d]pyrimidin-2-yl)phenyl) thiazole-5-carboxamide] was no less than 7.30. The value for `Cc1nc(C)c(C(=O)Nc2cccc(-c3nc(N4CCOCC4)c4sc(-c5cccnc5)cc4n3)c2)s1` [Example 23, 2,4-dimethyl-N-(3-(4-morpholino-6-(pyridin-3-yl)thieno[3,2-d]pyrimidin-2-yl)phenyl) thiazole-5-carboxamide] was 7.00 to 7.30; that for `O=C(Nc1cccc(-c2nc(N3CCOCC3)c3sc(-c4cccnc4)cc3n2)c1)C1CCCNC1` (stereo not drawn) [Example 24, N-(3-(4-morpholino-6-(pyridin-3-yl)thieno[3,2-d]pyrimidin-2-yl)phenyl)piperidine-3-carboxamide] was no less than 7.30. The value for `O=C(Nc1cccc(-c2nc(N3CCOCC3)c3sc(-c4cccnc4)cc3n2)c1)C1CCNCC1` [Example 25, N-(3-(4-morpholino-6-(pyridin-3-yl)thieno[3,2-d]pyrimidin-2-yl)phenyl)piperidine-4-carboxamide] was no less than 7.30.

For the compound `O=C(Nc1cccc(-c2nc(N3CCOCC3)c3sc(-c4cccnc4)cc3n2)c1)C1CCN(CCO)CC1` [Example 26, 1-(2-hydroxyethyl)-N-(3-(4-morpholino-6-(pyridin-3-yl)thieno[3,2-d]pyrimidin-2-yl)phenyl)piperidine-4-carboxamide], the negative-log IC50 (pIC50) is 7.00 to 7.30. With `COCCN1CCC(C(=O)Nc2cccc(-c3nc(N4CCOCC4)c4sc(-c5cccnc5)cc4n3)c2)CC1` [Example 27, 1-(2-methoxyethyl)-N-(3-(4-morpholino-6-(pyridin-3-yl)thieno[3,2-d]pyrimidin-2-yl)phenyl)piperidine-4-carboxamide], the pIC50 was 7.00 to 7.30. The value for `O=CN1CCC(C(=O)Nc2cccc(-c3nc(N4CCOCC4)c4sc(-c5cccnc5)cc4n3)c2)CC1` [Example 28, 1-formyl-N-(3-(4-morpholino-6-(pyridin-3-yl)thieno[3,2-d]pyrimidin-2-yl)phenyl)piperidine-4-carboxamide] was less than 7.00. The value for `CC(=O)N1CCC(C(=O)Nc2cccc(-c3nc(N4CCOCC4)c4sc(-c5cccnc5)cc4n3)c2)CC1` [Example 29, 1-acetyl-N-(3-(4-morpholino-6-(pyridin-3-yl)thieno[3,2-d]pyrimidin-2-yl)phenyl)piperidine-4-carboxamide] was less than 7.00.

Take `COC(=O)N1CCC(C(=O)Nc2cccc(-c3nc(N4CCOCC4)c4sc(-c5cccnc5)cc4n3)c2)CC1` [Example 30, methyl 4-((3-(4-morpholino-6-(pyridin-3-yl)thieno[3,2-d]pyrimidin-2-yl)phenyl)carbamoyl)piperidine-1-carboxylate]: the pIC50 was less than 7.00. With `CCOC(=O)N1CCC(C(=O)Nc2cccc(-c3nc(N4CCOCC4)c4sc(-c5cccnc5)cc4n3)c2)CC1` [Example 31, ethyl 4-((3-(4-morpholino-6-(pyridin-3-yl)thieno[3,2-d]pyrimidin-2-yl)phenyl)carbamoyl)piperidine-1-carboxylate], the negative-log IC50 (pIC50) is no less than 7.30.
